Experimental data reported in ChEMBL document CHEMBL1201862, “PubChem BioAssay data set” (2004).
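In this assay, cells in 96-well plates receive the compound at five concentrations for 48 hours. Endpoints are linearly interpolated between the surrounding concentrations. Abbreviation: GI50, concentration required for 50% inhibition of growth.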 The source made the active and inactive calls. No stated cut-off is given here; in the data, active = GI50 up to about 1.1 µM and inactive = higher.

Columns and labels:
Test in all cases: NCI-60 cell line screen, 48 h
MOLT-4 = tested on: MOLT-4
SNB-19 = tested on: SNB-19
NCI-H522 = tested on: NCI-H522
SK-OV-3 = tested on: SK-OV-3
SF-268 = tested on: SF-268
UACC-257 = tested on: UACC-257
A498 = tested on: A498
COLO 205 = tested on: COLO 205
SK-MEL-2 = tested on: SK-MEL-2
CAKI-1 = tested on: CAKI-1
LOX IMVI = tested on: LOX IMVI
NCI-H460 = tested on: NCI-H460
OVCAR-8 = tested on: OVCAR-8
NCI-H23 = tested on: NCI-H23
HOP-92 = tested on: HOP-92

Measured: GI50

O=C1[C@H](Cl)[C@H]2c3cc4ccccc4nc3Oc3ccccc3N12
inactive: MOLT-4 27.7 µM | SNB-19 46.8 µM | NCI-H522 24.3 µM | SK-OV-3 45.5 µM | SF-268 25.8 µM | UACC-257 50.4 µM | A498 42.9 µM | COLO 205 54.8 µM | SK-MEL-2 36.5 µM | CAKI-1 38.7 µM | LOX IMVI 36.7 µM | NCI-H460 53.7 µM | OVCAR-8 51.3 µM | NCI-H23 35.1 µM

Cc1cccc(C)c1NC(=O)CCCC(=O)C(C#N)c1ccccc1 (configuration not stated)
inactive: MOLT-4 > 100 µM | SNB-19 > 10 µM | NCI-H522 > 100 µM | SK-OV-3 91 µM | SF-268 > 10 µM | UACC-257 > 100 µM | A498 > 10 µM | COLO 205 > 100 µM | SK-MEL-2 > 100 µM | CAKI-1 > 100 µM | HOP-92 > 100 µM | NCI-H460 > 10 µM | OVCAR-8 > 10 µM | NCI-H23 > 100 µM

CC1=C(O)C(=O)C2C(=O)C1C1Cc3ccccc3C21 (configuration not stated)
inactive: MOLT-4 > 100 µM | SNB-19 > 100 µM | NCI-H522 > 100 µM | SK-OV-3 > 100 µM | SF-268 > 100 µM | A498 > 100 µM | COLO 205 > 100 µM | SK-MEL-2 > 100 µM | CAKI-1 > 100 µM | LOX IMVI > 100 µM | HOP-92 > 100 µM | OVCAR-8 > 100 µM | NCI-H23 > 100 µM

CCN(CC)C(=O)C/C(C)=N/NC(=O)c1ccncc1
inactive: MOLT-4 > 100 µM | NCI-H522 > 100 µM | SK-OV-3 > 100 µM | SF-268 > 100 µM | UACC-257 > 100 µM | COLO 205 > 100 µM | SK-MEL-2 > 100 µM | LOX IMVI > 100 µM | HOP-92 > 100 µM | NCI-H460 > 100 µM | OVCAR-8 > 100 µM | NCI-H23 > 100 µM

O=[N+]([O-])[C@@H]1C2C=CC(C2)[C@H]1Cl (some centres not stated)
inactive: MOLT-4 > 100 µM | SNB-19 > 100 µM | NCI-H522 > 100 µM | SK-OV-3 > 100 µM | SF-268 > 100 µM | UACC-257 > 100 µM | A498 > 100 µM | COLO 205 > 100 µM | SK-MEL-2 > 100 µM | CAKI-1 > 100 µM | LOX IMVI > 100 µM | HOP-92 > 100 µM | NCI-H460 > 100 µM | OVCAR-8 > 100 µM | NCI-H23 > 100 µM

c1ccc2c(c1)OCCOCCOc1ccccc1OCCO2
inactive: MOLT-4 47.5 µM | SNB-19 64.6 µM | NCI-H522 32.7 µM | SK-OV-3 > 100 µM | SF-268 > 100 µM | UACC-257 84.7 µM | A498 > 100 µM | COLO 205 50.5 µM | SK-MEL-2 90.4 µM | CAKI-1 78 µM | LOX IMVI 51.9 µM | HOP-92 51.5 µM | NCI-H460 36.3 µM | OVCAR-8 78 µM | NCI-H23 > 100 µM

O=C(O)c1c2c(c(C(=O)O)c3ccccc13)-c1ccccc1-2
inactive: MOLT-4 39.5 µM | SNB-19 36.6 µM | NCI-H522 35.2 µM | SK-OV-3 27.8 µM | SF-268 31.9 µM | UACC-257 47.5 µM | A498 44.1 µM | COLO 205 71.3 µM | SK-MEL-2 33.3 µM | LOX IMVI 38.4 µM | HOP-92 23.3 µM | OVCAR-8 39.9 µM | NCI-H23 39.8 µM

COc1nc(NC2OCC(OC(C)=O)C(OC(C)=O)C2OC(C)=O)c(-c2csc(N)n2)c(=O)n1C (configuration not stated)
inactive: MOLT-4 > 100 µM | SNB-19 > 100 µM | NCI-H522 > 100 µM | SK-OV-3 > 100 µM | SF-268 > 100 µM | UACC-257 > 100 µM | A498 > 100 µM | COLO 205 > 100 µM | SK-MEL-2 > 100 µM | CAKI-1 > 100 µM | LOX IMVI > 100 µM | HOP-92 > 100 µM | NCI-H460 > 100 µM | OVCAR-8 > 100 µM | NCI-H23 > 100 µM

CC1=CC(=O)c2c(C=O)c(O)c(O)c(C(C)C)c2C1=O
inactive: MOLT-4 21.2 µM | SNB-19 39.5 µM | NCI-H522 12.4 µM | SK-OV-3 34.5 µM | SF-268 20.9 µM | A498 24.4 µM | COLO 205 25.1 µM | SK-MEL-2 23.3 µM | CAKI-1 21.2 µM | LOX IMVI 14.9 µM | HOP-92 20.9 µM | NCI-H460 28.8 µM | NCI-H23 28.8 µM

Cc1ccc(NC(=O)C2C(=O)N(c3ccc(C)c(C)c3)C(=O)C2N=N)cc1C (configuration not stated)
inactive: MOLT-4 > 100 µM | SNB-19 > 100 µM | NCI-H522 38.1 µM | SK-OV-3 > 100 µM | SF-268 > 100 µM | UACC-257 > 100 µM | A498 > 100 µM | COLO 205 > 100 µM | SK-MEL-2 > 100 µM | CAKI-1 > 100 µM | HOP-92 47.9 µM | NCI-H460 89.7 µM | OVCAR-8 99.5 µM | NCI-H23 74.5 µM

COc1ccc2c3c([nH]c2c1[N+](=O)[O-])C(C)N(C)CC3 (configuration not stated)
inactive: MOLT-4 51.6 µM | SNB-19 > 100 µM | NCI-H522 > 100 µM | SK-OV-3 > 100 µM | SF-268 > 10 µM | UACC-257 > 100 µM | A498 > 100 µM | COLO 205 50.4 µM | SK-MEL-2 > 100 µM | CAKI-1 36.6 µM | HOP-92 34 µM | NCI-H460 > 100 µM | OVCAR-8 > 100 µM | NCI-H23 > 100 µM

CCc1cc(C)cc2[n+]1CC=C2C.[O-][Cl+3]([O-])([O-])[O-]
inactive: SNB-19 > 100 µM | NCI-H522 49.7 µM | SF-268 > 100 µM | UACC-257 27.3 µM | COLO 205 > 100 µM | SK-MEL-2 > 100 µM | CAKI-1 65.9 µM | LOX IMVI > 100 µM | HOP-92 8.63 µM | NCI-H460 > 100 µM | OVCAR-8 > 100 µM | NCI-H23 66.1 µM

O=C1CC(c2ccccc2)NCN1 (configuration not stated)
inactive: MOLT-4 > 100 µM | SNB-19 > 100 µM | NCI-H522 > 100 µM | SK-OV-3 > 100 µM | SF-268 > 100 µM | UACC-257 > 100 µM | A498 > 100 µM | COLO 205 > 100 µM | SK-MEL-2 > 100 µM | CAKI-1 > 100 µM | LOX IMVI > 100 µM | OVCAR-8 > 100 µM | NCI-H23 > 100 µM

Cc1c(C(=O)/C=C/c2ccccc2O)c(=O)n(-c2ccccc2)n1C
inactive: MOLT-4 19.3 µM | SNB-19 43.8 µM | NCI-H522 18.1 µM | SK-OV-3 36.1 µM | SF-268 37.8 µM | UACC-257 22.4 µM | A498 27.5 µM | COLO 205 26.4 µM | SK-MEL-2 18 µM | CAKI-1 21.8 µM | LOX IMVI 16.9 µM | HOP-92 28.3 µM | NCI-H460 12.9 µM | OVCAR-8 15.6 µM | NCI-H23 > 10 µM

O=C(O)c1c(-c2cccc3ccccc23)sc(-c2cccc3ccccc23)c1C(=O)O
inactive: MOLT-4 27.2 µM | SNB-19 > 100 µM | NCI-H522 74.8 µM | SK-OV-3 > 100 µM | SF-268 > 100 µM | UACC-257 > 100 µM | COLO 205 > 100 µM | SK-MEL-2 35.9 µM | LOX IMVI > 100 µM | HOP-92 > 100 µM | NCI-H460 > 100 µM | OVCAR-8 > 100 µM | NCI-H23 > 100 µM

O=C(N/C(=C\c1ccc(/C=C(\NC(=O)c2ccccc2)c2nc3cc(Cl)ccc3[nH]2)cc1)c1nc2cc(Cl)ccc2[nH]1)c1ccccc1
inactive: MOLT-4 3.89 µM | SNB-19 51.9 µM | NCI-H522 13.6 µM | SK-OV-3 > 100 µM | SF-268 11.8 µM | UACC-257 36.4 µM | A498 22.9 µM | COLO 205 24.3 µM | SK-MEL-2 36.7 µM | CAKI-1 40.9 µM | LOX IMVI 25.9 µM | HOP-92 35.1 µM | NCI-H460 29.7 µM | OVCAR-8 27.7 µM | NCI-H23 27.7 µM

COc1cc2c(cc1OC)[Se]c1cc(OC)c(OC)cc1[Se]2
inactive: MOLT-4 > 100 µM | SNB-19 > 10 µM | NCI-H522 8.75 µM | SK-OV-3 > 10 µM | SF-268 > 10 µM | UACC-257 > 10 µM | A498 > 10 µM | COLO 205 > 10 µM | SK-MEL-2 > 10 µM | CAKI-1 > 10 µM | LOX IMVI 80 µM | HOP-92 69 µM | NCI-H460 > 10 µM | OVCAR-8 > 10 µM | NCI-H23 > 10 µM

COc1c(O)c2c3c(cc(C)cc3c1C(C)C)OC2
inactive: MOLT-4 > 100 µM | SNB-19 > 100 µM | NCI-H522 > 100 µM | SK-OV-3 > 100 µM | SF-268 > 100 µM | UACC-257 > 100 µM | COLO 205 > 100 µM | SK-MEL-2 > 100 µM | LOX IMVI > 100 µM | HOP-92 > 100 µM | NCI-H460 > 100 µM | OVCAR-8 > 100 µM | NCI-H23 > 100 µM

O=C(CSc1nnc[nH]1)C[P+](c1ccccc1)(c1ccccc1)c1ccccc1
inactive: MOLT-4 40.2 µM | SNB-19 > 100 µM | NCI-H522 4.25 µM | SK-OV-3 > 100 µM | SF-268 > 100 µM | UACC-257 > 100 µM | COLO 205 > 100 µM | SK-MEL-2 > 100 µM | CAKI-1 54.6 µM | LOX IMVI > 100 µM | HOP-92 22.9 µM | NCI-H460 94.4 µM | OVCAR-8 > 100 µM | NCI-H23 > 100 µM
